Assay results as given in ChEMBL document CHEMBL3217729, “Sangamides, a new class of cyclophilin-inhibiting host-targeted antivirals for treatment of HCV infection” (Medchemcomm, 2012).
In brackets after ≈: the same amount, converted by molar mass.

Legend:
[1] = biological target: Peptidyl-prolyl cis-trans isomerase A (Homo sapiens, UniProt P62937); assay: Inhibition of recombinant GST-tagged CypA (unknown origin)/HCV Con1 NS5A-His interaction after 16 hrs by ELISA
[2] = Half life in human liver microsomes at 1 uM by LC-MS/MS analysis; type: ADME
in vitro = details: mouse, liver microsomes
Description: Half life in mouse liver microsomes at 1 uM by LC-MS/MS analysis

[3] = Selectivity index, ratio of CC50 for human Huh5-2 cells to EC50 for Hepatitis C virus genotype 1b I389luc-ubi-neo/NS3-3'/5.1 subgenomic replicon infected in human Huh5-2 cells; type: toxicity, cell-based, Huh-5-2; details: read-out: Ratio CC50/EC50
[4] = Solubility of the compound in phosphate buffered saline at pH 7.4 after 4 hrs by LC-MS/MS analysis
[5] = Half life in human hepatocytes at 1 uM by LC-MS/MS analysis; type: ADME, cell-based, Hepatocyte
Hepatitis C virus [6] = assay: Antiviral activity against Hepatitis C virus genotype 1b I389luc-ubi-neo/NS3-3'/5.1 subgenomic replicon infected in human Huh5-2 cells after 4 days by luciferase assay; type: functional, cell-based, Hepacivirus hominis; details: Huh-5-2, 96 h
[7] = Cytostatic activity against human Huh5-2 cells assessed as decrease in cell proliferation after 3 days by MTS method; type: ADME, cell-based, Huh-5-2
PBMC = assay: Immunosuppressive activity in human PBMC isolated from two individuals assessed as inhibition of proliferation using [3H]thymidine by mixed lymphocyte reaction assay; type: cell-based
Hepatitis C virus [8] = assay: Antiviral activity against Hepatitis C virus genotype 1b Con1 infected in human Huh7 cells assessed as decrease in subgenomic RNA level after 72 hrs by RT-PCR analysis; type: functional, cell-based, Hepacivirus hominis; details: genotype 1b Con1, Huh-7, 72 h
Hepatitis C virus [9] = assay: Antiviral activity against Hepatitis C virus genotype 2a JFH-1 infected in human Huh7 cells assessed as decrease in subgenomic RNA level after 72 hrs by RT-PCR analysis; type: functional, cell-based, Hepacivirus hominis; details: genotype 2a JFH-1, Huh-7, 72 h
Hepatitis C virus [10] = assay: Antiviral activity against Hepatitis C virus genotype 1a H77 infected in human Huh7 cells assessed as decrease in subgenomic RNA level after 72 hrs by RT-PCR analysis; type: functional, cell-based, Hepacivirus hominis; details: genotype 1a H77, Huh-7, 72 h

Sequence of Peptidyl-prolyl cis-trans isomerase A (P62937 whole entry): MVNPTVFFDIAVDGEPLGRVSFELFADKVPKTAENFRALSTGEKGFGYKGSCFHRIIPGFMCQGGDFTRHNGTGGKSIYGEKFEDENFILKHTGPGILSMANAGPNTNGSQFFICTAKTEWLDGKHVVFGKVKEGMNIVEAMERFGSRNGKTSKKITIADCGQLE

CC(=O)CC[C@H]1C(=O)N[C@@H](C(C)C)C(=O)N[C@@H](Cc2cccc(O)c2)C(=O)N2CCCC(N2)C(=O)O[C@H](/C(C)=C/C=C/C(=O)NC2CCCCC2)C/C=C/C=C/[C@H](O)[C@H](C)[C@H]1O (stereo in doubt)
IC50 [1]: 450 nM
half-life at 1 µM [2]: 6.5 min
half-life at 1 µM (in vitro): 2.7 min
selectivity ratio [3]: > 298
solubility at 4 h [4]: 29 µM (≈ 25 µg/mL)
half-life at 1 µM [5]: > 240 min
EC50 (Hepatitis C virus [6]): 336 nM
EC90 (Hepatitis C virus [6]): 4230 nM
CC50 at 72 h [7]: > 100000 nM

C=CCNC(=O)/C=C/C=C(\C)[C@@H]1C/C=C/C=C/[C@H](O)[C@H](C)[C@@H](O)[C@@H](CCC(C)=O)C(=O)N[C@@H](C(C)C)C(=O)N[C@@H](Cc2cccc(O)c2)C(=O)N2CCCC(N2)C(=O)O1 (stereo in doubt)
IC50 [1]: 360 nM
half-life at 1 µM [2]: 23.9 min
half-life at 1 µM (in vitro): 10.6 min
selectivity ratio [3]: 30
half-life at 1 µM [5]: 139 min
EC50 (Hepatitis C virus [6]): 1600 nM
EC90 (Hepatitis C virus [6]): 8500 nM
CC50 at 72 h [7]: 48000 nM

C/C=C/C[C@@H](C)[C@@H](O)[C@H]1C(=O)N[C@@H](CC)C(=O)N(C)[C@H](C)C(=O)N(CC)[C@@H](C(C)C)C(=O)N[C@@H](C(C)C)C(=O)N(C)[C@@H](CC(C)C)C(=O)N[C@@H](C)C(=O)N[C@H](C)C(=O)N(C)[C@@H](CC(C)C)C(=O)N(C)[C@@H](CC(C)C)C(=O)N(C)[C@@H](C(C)C)C(=O)N1C [ALISPORIVIR]
IC50 (PBMC): 840 nM

CC(=O)CC[C@H]1C(=O)N[C@@H](C(C)C)C(=O)N[C@@H](Cc2cccc(O)c2)C(=O)N2CCCC(N2)C(=O)O[C@H](/C(C)=C/C=C/C(=O)N(C)C2CCCCC2)C/C=C/C=C/[C@H](O)[C@H](C)[C@H]1O (stereo not given in full)
IC50 [1]: 420 nM
half-life at 1 µM [2]: 3.3 min
half-life at 1 µM (in vitro): 1.9 min
selectivity ratio [3]: 446
solubility at 4 h [4]: 48 µM (≈ 42.1 µg/mL)
half-life at 1 µM [5]: > 240 min
EC50 (Hepatitis C virus [6]): 148 nM
EC90 (Hepatitis C virus [6]): 1900 nM
CC50 at 72 h [7]: 66000 nM

CC(=O)CC[C@H]1C(=O)N[C@@H](C(C)C)C(=O)N[C@@H](Cc2cccc(O)c2)C(=O)N2CCCC(N2)C(=O)O[C@H](/C(C)=C/C=C/C(=O)N(CC(C)C)CC(C)C)C/C=C/C=C/[C@H](O)[C@H](C)[C@H]1O (stereo not given in full)
IC50 [1]: 390 nM
half-life at 1 µM [2]: 21.6 min
half-life at 1 µM (in vitro): 2.5 min
selectivity ratio [3]: 6.8
half-life at 1 µM [5]: 98 min
EC50 (Hepatitis C virus [6]): 309 nM
EC90 (Hepatitis C virus [6]): 1100 nM
CC50 at 72 h [7]: 2100 nM

CC(=O)CC[C@H]1C(=O)N[C@@H](C(C)C)C(=O)N[C@@H](Cc2cccc(O)c2)C(=O)N2CCCC(N2)C(=O)O[C@H](/C(C)=C/C=C/C(=O)N(C)C)C/C=C/C=C/[C@H](O)[C@H](C)[C@H]1O (stereo not given in full)
IC50 [1]: 630 nM
half-life at 1 µM [2]: 48 min
half-life at 1 µM (in vitro): 24.7 min
selectivity ratio [3]: > 287
solubility at 4 h [4]: > 100 µM
half-life at 1 µM [5]: 128 min
EC50 (Hepatitis C virus [6]): 349 nM
EC90 (Hepatitis C virus [6]): 62000 nM
CC50 at 72 h [7]: > 100000 nM

CC(=O)CC[C@H]1C(=O)N[C@@H](C(C)C)C(=O)N[C@@H](Cc2cccc(O)c2)C(=O)N2CCCC(N2)C(=O)O[C@H](/C(C)=C/C=C/C(=O)N2CCOCC2)C/C=C/C=C/[C@H](O)[C@H](C)[C@H]1O (stereo not given in full)
IC50 [1]: 330 nM
half-life at 1 µM [2]: 50.3 min
half-life at 1 µM (in vitro): 18 min
selectivity ratio [3]: > 72
solubility at 4 h [4]: > 100 µM
half-life at 1 µM [5]: > 240 min
EC50 (Hepatitis C virus [6]): 1400 nM
EC90 (Hepatitis C virus [6]): 7400 nM

CC(=O)CC[C@H]1C(=O)N[C@@H](C(C)C)C(=O)N[C@@H](Cc2cccc(O)c2)C(=O)N2CCCC(N2)C(=O)O[C@H](/C(C)=C/C=C/C(=O)Nc2cccnc2)C/C=C/C=C/[C@H](O)[C@H](C)[C@H]1O (stereo in doubt)
IC50 [1]: 460 nM
half-life at 1 µM [2]: 7.5 min
half-life at 1 µM (in vitro): 3.3 min
selectivity ratio [3]: > 40
solubility at 4 h [4]: 18 µM (≈ 15.4 µg/mL)
half-life at 1 µM [5]: 116 min
EC50 (Hepatitis C virus [6]): 2480 nM
EC90 (Hepatitis C virus [6]): 5410 nM
CC50 at 72 h [7]: > 100000 nM

CCC[C@H](NC(=O)[C@@H]1[C@H]2CCC[C@H]2CN1C(=O)[C@@H](NC(=O)[C@@H](NC(=O)c1cnccn1)C1CCCCC1)C(C)(C)C)C(=O)C(=O)NC1CC1
selectivity ratio [3]: > 315
EC50 (Hepatitis C virus [8]): 720 nM
EC50 (Hepatitis C virus [6]): 235 nM
EC90 (Hepatitis C virus [6]): 838 nM
CC50 at 72 h [7]: > 74000 nM

CC(=O)CC[C@H]1C(=O)N[C@@H](C(C)C)C(=O)N[C@@H](Cc2cccc(O)c2)C(=O)N2CCCC(N2)C(=O)O[C@H](/C(C)=C/C=C/C(=O)N(C)c2ccccn2)C/C=C/C=C/[C@H](O)[C@H](C)[C@H]1O (stereo not given in full)
IC50 [1]: 330 nM
half-life at 1 µM [2]: 19.1 min
half-life at 1 µM (in vitro): 9.8 min
selectivity ratio [3]: > 50
solubility at 4 h [4]: 17 µM (≈ 14.8 µg/mL)
half-life at 1 µM [5]: 150 min
EC50 (Hepatitis C virus [6]): 2010 nM
EC90 (Hepatitis C virus [6]): 11500 nM
CC50 at 72 h [7]: > 100000 nM

CC(=O)CC[C@H]1C(=O)N[C@@H](C(C)C)C(=O)N[C@@H](Cc2cccc(O)c2)C(=O)N2CCCC(N2)C(=O)O[C@H](/C(C)=C/C=C/C(=O)Nc2ccc(-c3ccccc3)cc2)C/C=C/C=C/[C@H](O)[C@H](C)[C@H]1O (stereo in doubt)
IC50 [1]: 520 nM
half-life at 1 µM [2]: 2.3 min
half-life at 1 µM (in vitro): 1.3 min
selectivity ratio [3]: > 481
solubility at 4 h [4]: 2 µM (≈ 1.86 µg/mL)
half-life at 1 µM [5]: > 240 min
EC50 (Hepatitis C virus [6]): 208 nM
EC90 (Hepatitis C virus [6]): 1150 nM
CC50 at 72 h [7]: > 100000 nM

CCN(CC)C(=O)/C=C/C=C(\C)[C@@H]1C/C=C/C=C/[C@H](O)[C@H](C)[C@@H](O)[C@@H](CCC(C)=O)C(=O)N[C@@H](C(C)C)C(=O)N[C@@H](Cc2cccc(O)c2)C(=O)N2CCCC(N2)C(=O)O1 (stereo not given in full)
IC50 [1]: 350 nM
half-life at 1 µM [2]: 16.8 min
half-life at 1 µM (in vitro): 8.4 min
selectivity ratio [3]: > 490
solubility at 4 h [4]: > 100 µM
half-life at 1 µM [5]: 94 min
EC50 (Hepatitis C virus [6]): 204 nM
EC90 (Hepatitis C virus [6]): 1200 nM
CC50 at 72 h [7]: > 100000 nM

CNC(=O)/C=C/C=C(\C)[C@@H]1C/C=C/C=C/[C@H](O)[C@H](C)[C@@H](O)[C@@H](CCC(C)=O)C(=O)N[C@@H](C(C)C)C(=O)N[C@@H](Cc2cccc(O)c2)C(=O)N2CCCC(N2)C(=O)O1 (stereo in doubt)
IC50 [1]: 500 nM
half-life at 1 µM [2]: 37.2 min
half-life at 1 µM (in vitro): 22.5 min
selectivity ratio [3]: > 13
solubility at 4 h [4]: > 100 µM
half-life at 1 µM [5]: 192 min
EC50 (Hepatitis C virus [6]): 8000 nM
EC90 (Hepatitis C virus [6]): 60200 nM
CC50 at 72 h [7]: > 100000 nM

CC(=O)CC[C@H]1C(=O)N[C@@H](C(C)C)C(=O)N[C@@H](Cc2cccc(O)c2)C(=O)N2CCCC(N2)C(=O)O[C@H](/C(C)=C/C=C/C(=O)NC(C)C)C/C=C/C=C/[C@H](O)[C@H](C)[C@H]1O (stereo in doubt)
IC50 [1]: 380 nM
half-life at 1 µM [2]: 16.9 min
half-life at 1 µM (in vitro): 6.4 min
selectivity ratio [3]: > 179
solubility at 4 h [4]: 12 µM (≈ 9.86 µg/mL)
half-life at 1 µM [5]: 59 min
EC50 (Hepatitis C virus [6]): 560 nM
EC90 (Hepatitis C virus [6]): 4600 nM
CC50 at 72 h [7]: > 100000 nM

C/C=C/C[C@@H](C)[C@@H](O)[C@H]1C(=O)N[C@@H](CC)C(=O)N(C)CC(=O)N(C)[C@@H](CC(C)C)C(=O)N[C@@H](C(C)C)C(=O)N(C)[C@@H](CC(C)C)C(=O)N[C@@H](C)C(=O)N[C@H](C)C(=O)N(C)[C@@H](CC(C)C)C(=O)N(C)[C@@H](CC(C)C)C(=O)N(C)[C@@H](C(C)C)C(=O)N1C [CYCLOSPORINE]
EC50 (Hepatitis C virus [8]): 137 nM
EC50 (Hepatitis C virus [9]): 455 nM
EC50 (Hepatitis C virus [6]): 306 nM
EC90 (Hepatitis C virus [6]): 1000 nM
EC50 (Hepatitis C virus [10]): 198 nM

CC(=O)CC[C@H]1C(=O)N[C@@H](C(C)C)C(=O)N[C@@H](Cc2cccc(O)c2)C(=O)N2CCCC(N2)C(=O)O[C@H](/C(C)=C/C=C/C(=O)Nc2ccncc2)C/C=C/C=C/[C@H](O)[C@H](C)[C@H]1O (stereo not given in full)
IC50 [1]: 550 nM
half-life at 1 µM [2]: 32.2 min
half-life at 1 µM (in vitro): 15.2 min
selectivity ratio [3]: > 12.4
solubility at 4 h [4]: 15 µM (≈ 12.9 µg/mL)
half-life at 1 µM [5]: > 240 min
EC50 (Hepatitis C virus [6]): 8060 nM
EC90 (Hepatitis C virus [6]): 31900 nM
CC50 at 72 h [7]: > 100000 nM
